Numbers after ± are expanded uncertainties.
Experiment: cn = amount concentration of the nth substance listed, in mol/dm3
Details: 298.15 K, 101 kPa, Liquid, c1 = 1

- speed of sound (Sing-around technique in a fixed-path interferometer): 1561.4 ± 1.3 m/s
- mass density (Vibrating tube method): 1023.26 ± 0.12 kg/m3
SMILES: CNCC(=O)O [sarcosine] + O

From the NIST ThermoML archive (doi:10.1016/j.jct.2013.09.009)
